Assay results reported in paper PMC8508785, “Synthesis and In Silico Docking of New Pyrazolo[4,3-e]pyrido[1,2-a]pyrimidine-based Cytotoxic Agents” (International Journal of Molecular Sciences, 2021).
Each block holds one compound with its values, some of them ahead of it.

Experiments:
[1] = test system: A375 cells (malignant melanoma); assay: SRB cytotoxicity assay, A375; assay type: cell-based; conditions: Homo sapiens, A-375, 72 h of treatment
Experimental: (§1) The synthesized compounds were evaluated for their cytotoxic activity by a photometric […] (SRB) on different human cancer cell lines, malignant melanoma (A375), colon (HT29), breast (MCF-7), human ovarian carcinoma (A2780) and pharynx carcinoma (FaDu); for comparison, non-malignant mouse embryonic fibroblasts (NIH 3T3) and human embryonic kidney cells (HEK293) were included; doxorubicin (DX) was used as a positive control.
(§2) The cell lines were obtained from Department of oncology (MartinLutherUniversity Halle-Wittenberg). Cultures were maintained as monolayers in RPMI 1640 medium with L-glutamine (Capricorn Scientific GmbH, Ebsdorfergrund, Germany) supplemented with 10% heat-inactivated fetal bovine serum (Sigma-Aldrich Chemie GmbH, Steinheim, Germany) and penicillin/streptomycin (1%, Capricorn Scientific GmbH, Ebsdorfergrund, Germany) at 37 °C in a humidified atmosphere with 5% CO2.
(§3) The cytotoxicity of the compounds was evaluated using the sulforhodamine-B (Kiton-Red S, ABCR: Karlsruhe, Germany) microculture colorimetric assay using […] cells in 96-well plates with the seeding of the cells on day 0,by applying appropriate cell densities to prevent confluence of the cells during the period of the experiment. On day 1, the cells were treated with six different concentrations (1, 3, 7, 12, 20 and 30 μM); thereby, the final concentration of DMSO was always <0.5%, generally regarded as non-toxic to the cells. On day 4, the supernatant medium was discarded; the cells were fixed with 10% trichloroacetic acid. After another day at 4 °C, the cells were washed in a strip washer and dyed with the SRB solution (100 μL, 0.4% in 1% acetic acid) for about 20 min to be followed by washing of the plates (four times, 1% acetic acid) and air-drying overnight. Furthermore, Tris base solution (200 μL, 10 mM) was added to each well, and absorbance was measured at λ = 570 nm employing a reader (96 wells, Tecan Spectra, Crailsheim, Germany). The EC50 values were averaged from three independent experiments performed each in triplicate, calculated from semi-logarithmic dose–response curves applying a non-linear four-parameter Hill-slope equation (GraphPad Prism5 vom Graphpad Software Inc., San Diego, USA; the variables top and bottom were set to 100 and 0, respectively).

HT29 cells (colon) = assay: SRB cytotoxicity assay, HT29; assay type: cell-based; conditions: Homo sapiens, HT-29, 72 h of treatment
Experimental: as §1, §2, §3

MCF-7 cells (breast) = assay: SRB cytotoxicity assay, MCF-7; assay type: cell-based; conditions: Homo sapiens, MCF7, 72 h of treatment
Experimental: as §1, §2, §3

[2] = test system: A2780 cells (human ovarian carcinoma); assay: SRB cytotoxicity assay, A2780; assay type: cell-based; conditions: 72 h of treatment
Experimental: as §1, §2, §3

[3] = test system: FaDu cells (pharynx carcinoma); assay: SRB cytotoxicity assay, FaDu; assay type: cell-based; conditions: Homo sapiens, 72 h of treatment
Experimental: as §1, §2, §3

[4] = test system: NIH 3T3 non-malignant mouse embryonic fibroblasts; assay: SRB cytotoxicity assay, NIH 3T3; assay type: cell-based; conditions: NIH3T3, 72 h of treatment, non-malignant NIH 3T3
Experimental: as §1, §2, §3

[5] = test system: HEK293 human embryonic kidney cells; assay: SRB cytotoxicity assay, HEK293; assay type: cell-based; conditions: 72 h of treatment, non-malignant HEK293
Experimental: as §1, §2, §3

[6] = test system: human tumor cell lines A375, HT29, MCF7, A2780, FaDu; assay: SRB cytotoxicity assay, panel of human tumor cell lines; assay type: cell-based; conditions: one statement for several/all five cancer cell lines, read-out: EC50 across the cancer cell lines
Experimental: as §1, §2
as §3, with “After another day at 4 °C, the cells were washed in a strip washer and dyed with the SRB solution (100 μL, 0.4% in 1% acetic acid) for about 20 min to be followed by washing of the plates (four times, 1% acetic acid) and air-drying overnight.” left out

SMILES: Cc1nn(-c2ccccc2)c(N)c1C#N [Compound 3, 5-Amino-3-methyl-1-phenyl-1H-pyrazole-4-carbonitrile]
EC50 [1]: > 30 µM
EC50 (HT29 cells (colon)): > 30 µM
EC50 (MCF-7 cells (breast)): > 30 µM
EC50 [2]: > 30 µM
EC50 [3]: > 30 µM
EC50 [4]: > 30 µM
EC50 [5]: > 30 µM
EC50 [6]: > 30 µM
melting point: 132 °C

SMILES: CC(=O)/C=C(\C)Nc1c(C#N)c(C)nn1-c1ccccc1 [Compound 5, 3-Methyl-5-{[(1E)-1-methyl-3-oxobut-1-en-1-yl]amino}-1-phenyl-1H-pyrazole-4-carbonitrile]
EC50 [1]: > 30 µM
EC50 (HT29 cells (colon)): > 30 µM
EC50 (MCF-7 cells (breast)): > 30 µM
EC50 [2]: > 30 µM
EC50 [3]: > 30 µM
EC50 [4]: > 30 µM
EC50 [5]: > 30 µM
EC50 [6]: > 30 µM
melting point: 109 °C

SMILES: CC(=O)C1=C(C)N2C(=C(C#N)C1c1ccc(Cl)cc1)N=C(N)c1c(C)nn(-c3ccccc3)c12 (stereo not shown) [Compound 7a, 8-Acetyl-4-amino-7-(4-chlorophenyl)-3,9-dimethyl-1-phenyl-1,7-dihydropyrazolo[4,3-e] Pyrido[1,2-a]pyrimidine-6-carbonitrile]
EC50 [1]: 19.3 ± 3 µM
EC50 (HT29 cells (colon)): 29.9 ± 1.4 µM
EC50 (MCF-7 cells (breast)): 17.2 ± 1.4 µM
EC50 [2]: 18 ± 3 µM
EC50 [3]: > 30 µM
EC50 [4]: 23 ± 1.4 µM
EC50 [5]: 15.8 ± 2 µM
melting point: 167 °C

SMILES: CC(=O)C1=C(C)N2C(=C(C#N)C1c1ccc(C)cc1)N=C(N)c1c(C)nn(-c3ccccc3)c12 (stereo not shown) [Compound 7b]
EC50 [1]: 12.9 ± 1.6 µM
EC50 (HT29 cells (colon)): 17.5 ± 1.8 µM
EC50 (MCF-7 cells (breast)): 12.2 ± 1.3 µM
EC50 [2]: 14.6 ± 2.2 µM
EC50 [3]: 22.3 ± 2.7 µM
EC50 [4]: 21.3 ± 0.9 µM
EC50 [5]: 12.4 ± 0.9 µM
melting point: 167 °C

SMILES: CC(=O)C1=C(C)N2C(=C(C#N)C1c1ccccc1)N=C(N)c1c(C)nn(-c3ccccc3)c12 (stereo not shown) [Compound 7c, 8-Acetyl-4-amino-3,9-dimethyl-1,7-diphenyl-1,7-dihydropyrazolo[4,3-e]Pyrido[1,2-a]pyrimidine-6-carbonitrile]
EC50 [1]: 19.3 ± 3.8 µM
EC50 (HT29 cells (colon)): > 30 µM
EC50 (MCF-7 cells (breast)): 19.5 ± 1.1 µM
EC50 [2]: 25.4 ± 2.5 µM
EC50 [3]: > 30 µM
EC50 [4]: > 30 µM
EC50 [5]: 7.7 ± 1.1 µM
melting point: 198 °C

SMILES: COc1cccc2c1C(=O)c1c(O)c3c(c(O)c1C2=O)C[C@@](O)(C(=O)CO)C[C@@H]3O[C@H]1C[C@H](N)[C@H](O)[C@H](C)O1 [DX, doxorubicin, reference compound]
EC50 (HT29 cells (colon)): 0.9 ± 0.01 µM
EC50 (MCF-7 cells (breast)): 1.1 ± 0.3 µM
EC50 [2]: 0.01 ± 0.01 µM
EC50 [4]: 0.4 ± 0.07 µM

Continued, in another order:

melting point: 160 °C
SMILES: COc1ccc(C2C(C#N)=C3N=C(N)c4c(C)nn(-c5ccccc5)c4N3C(C)=C2C(C)=O)cc1 (stereo not shown) [Compound 7d, 8-Acetyl-4-Amino-7-(4-methoxyphenyl)-3,9-dimethyl-1-phenyl-1,7-dihydropyrazolo[4,3-e] Pyrido[1,2-a]pyrimidine-6-carbonitrile]
EC50 [1]: 21.5 ± 3.6 µM
EC50 (HT29 cells (colon)): 28.3 ± 3.5 µM
EC50 (MCF-7 cells (breast)): 18.4 ± 2.3 µM
EC50 [2]: 21.7 ± 3.9 µM
EC50 [3]: > 30 µM
EC50 [4]: > 30 µM
EC50 [5]: 16.7 ± 1.2 µM

melting point: 192 °C
SMILES: CC(=O)C1=C(C)N2C(=C(C#N)C1c1ccc(Br)cc1)N=C(N)c1c(C)nn(-c3ccccc3)c12 (stereo not shown) [Compound 7e, 8-Acetyl-4-amino-7-(4-bromophenyl)-3,9-dimethyl-1-phenyl-1,7-dihydropyrazolo[4,3-e] Pyrido[1,2-a]pyrimidine-6-carbonitrile]
EC50 [1]: 9.4 ± 1.2 µM
EC50 (HT29 cells (colon)): 13.3 ± 1.8 µM
EC50 (MCF-7 cells (breast)): 9.2 ± 0.7 µM
EC50 [2]: 9.1 ± 1.6 µM
EC50 [3]: 13.5 ± 1.5 µM
EC50 [4]: 12.3 ± 0.7 µM
EC50 [5]: 6.6 ± 0.6 µM
EC50 [6]: 9.1 to 13.5 µM

melting point: 259 °C
SMILES: CC(=O)C1=C(C)N2C(=C(C#N)C1c1ccc(F)cc1)N=C(N)c1c(C)nn(-c3ccccc3)c12 (stereo not shown) [Compound 7f, 8-Acetyl-4-amino-7-(4-fluorophenyl)-3,9-dimethyl-1-phenyl-1,7-sihydropyrazolo[4,3-e] Pyrido[1,2-a]pyrimidine-6-carbonitrile]
EC50 [1]: 18.1 ± 3.3 µM
EC50 (HT29 cells (colon)): 24.7 ± 4.4 µM
EC50 (MCF-7 cells (breast)): 19.2 ± 1.3 µM
EC50 [2]: 19.2 ± 3.9 µM
EC50 [3]: > 30 µM
EC50 [4]: 24.1 ± 2.8 µM
EC50 [5]: 14.7 ± 1.4 µM

melting point: 164 °C
SMILES: CC(=O)C1=C(C)N2C(=C(C#N)C1c1ccc([N+](=O)[O-])cc1)N=C(N)c1c(C)nn(-c3ccccc3)c12 (stereo not shown) [Compound 7g, 8-Acetyl-4-amino-3,9-dimethyl-7-(4-nitrophenyl)-1-phenyl-1,7-dihydropyrazolo[4,3-e] Pyrido[1,2-a]pyrimidine-6-carbonitrile]
EC50 [1]: 16.2 ± 2 µM
EC50 (HT29 cells (colon)): 25.9 ± 3.4 µM
EC50 (MCF-7 cells (breast)): 15.7 ± 2.2 µM
EC50 [2]: 14.5 ± 2.2 µM
EC50 [3]: > 30 µM
EC50 [4]: > 30 µM
EC50 [5]: 17 ± 1.3 µM

melting point: 260 °C
SMILES: COc1ccc(C2C(C#N)=C3N=C(N)c4c(C)nn(-c5ccccc5)c4N3C(C)=C2C(C)=O)cc1OC (stereo not shown) [Compound 7h, 8-Acetyl-4-amino-7-(3,4-dimethoxyphenyl)-3,9-dimethyl-1-phenyl-1,7-dihydropyrazolo[4,3-e] Pyrido[1,2-a]pyrimidine-6-carbonitrile]
EC50 [1]: 22.1 ± 4.9 µM
EC50 (HT29 cells (colon)): > 30 µM
EC50 (MCF-7 cells (breast)): 25.1 ± 2.8 µM
EC50 [2]: 27.5 ± 8.1 µM
EC50 [3]: > 30 µM
EC50 [4]: > 30 µM
EC50 [5]: 24 ± 3.4 µM

melting point: 235 °C
SMILES: CC(=O)C1=C(C)N2C(=C(C#N)C1c1ccc(Cl)c(Cl)c1)N=C(N)c1c(C)nn(-c3ccccc3)c12 (stereo not shown) [Compound 7i, 8-Acetyl-4-amino-7-(3,4-dichlorophenyl)-3,9-dimethyl-1-phenyl-1,7-dihydropyrazolo[4,3-e] Pyrido[1,2-a]pyrimidine-6-carbonitrile]

melting point: 262 °C
SMILES: CC(=O)C1=C(C)N2C(=C(C#N)C1c1ccc([N+](=O)[O-])s1)N=C(N)c1c(C)nn(-c3ccccc3)c12 (stereo not shown) [Compound 7j, 8-Acetyl-4-amino-3,9-dimethyl-7-(5-nitro-2-thienyl)-1-phenyl-1,7-dihydropyrazolo[4,3-e] Pyrido[1,2-a]pyrimidine-6-carbonitrile]

melting point: 270 °C
SMILES: CC(=O)C1=C(C)N2C(=C(C#N)C1c1ccc3ccccc3c1)N=C(N)c1c(C)nn(-c3ccccc3)c12 (stereo not shown) [Compound 7k, 8-Acetyl-4-amino-3,9-dimethyl-7-(2-naphthyl)-1-phenyl-1,7-dihydropyrazolo[4,3-e] Pyrido[1,2-a]pyrimidine-6-carbonitrile]

melting point: 306 °C
SMILES: CC(=O)C1=C(C)N2C(=C(C#N)C1c1cccnc1)N=C(N)c1c(C)nn(-c3ccccc3)c12 (stereo not shown) [Compound 7l, 8-Acetyl-4-amino-3,9-dimethyl-1-phenyl-7-pyridin-3-yl-1,7-dihydropyrazolo[4,3-e] Pyrido[1,2-a]pyrimidine-6-carbonitrile]
